For the series, the system named is skin. Description: Bakuchiol penetration to skin from low pH formulations. As to conditions: in low pH formulations compared to neutral/alkaline pH formulations.

With `C=C[C@@](C)(/C=C/c1ccc(O)cc1)CCC=C(C)C` [bakuchiol, Bakuchiol], the Penetration to skin entry was “improved penetration to skin”.
